# Measured values reported in patent US9144591B2, “Transcription modulator compositions” (Academia Sinica, priority 2006, dated 2015).
# Legend:
# [1] = tested on: PSA promoter (androgen-responsive promoter) in 22RvPSA36-103 cells; assay: PSA-luciferase reporter assay, induction by steroid hormones; type: cell-based, human; settings: 20 hours; for PSA-luciferase activity stimulation: 10 nM, dose dependent, maximum
# Description: The 22Rvl cell line was purchased from ATCC. Reporter plasmid (p5.7 kb-PSA-Luc) was constructed by inserting the 5.7 kb PSA promoter into pGL3 plasmid (Promega).
# (§1) For luciferase activity assays, 8×10^4 22Rvl-derived cells were grown in 48-well multi-well plates. The cell culture medium was RPMI containing 5% charcoal coated dextran stripped fetal bovine serum (Hyclone). After the cells were grown for one day in culture, their growth medium was exchanged to include experimental or control compositions, as described below, and cell growth was continued for a further 20 hours. Cells were lysed by the addition of passive lysis buffer (Promega), then luciferase assays were performed using a luciferase assay system (Promega) and VICTOR^2 multilabel counter (PerkinElmer), and normalized to lysate protein as measured by a Coomassie (Bradford) Protein Assay Kit (Pierce).
# The AR signaling pathway promotes the development of prostate cancer. Thus, we established a cell-based model to observe androgen-responsive promoter activity in human prostate cancer cells. […] 22RvPSA36-103 cells were incubated for 20 hours in the presence of an androgen.
# [2] = tested on: androgen-responsive promoter activity in 22RvPSA36-103 cells; assay: Luciferase assay, inhibition of androgen-induced androgen-responsive promoter activity; type: cell-based, human; settings: 20 hours
# Description: as §1
# The ability of the IKK inhibitors 15-deoxy-Δ^12,14-prostaglandin J2, prostaglandin A1, and wedelolactone to inhibit androgen-responsive promoter activity was tested using the above-described luciferase assay.
# A tet operon-regulated H1-small hairpin RNA expression cassette was constructed and inserted into the pcDNA6tTR™ plasmid from Invitrogen (Carlsbad, Calif.). Each knockdown plasmid was transfected into 22RvPSA36-103 cells to produce stably transfected cell lines. The knockdown of IKKα or IKKβ in daughter cell lines was determined by immunoblotting. […] To induce RNAi-mediated knockdown, cells were grown in medium containing 1 μg/ml doxycycline as compared to vehicle control for 3 days. Subsequent treatment and assays were performed according to the procedure of the aforementioned luciferase assays.
# 22RvPSA36-103 cells = assay: Colony forming efficiency, crystal violet OD595, 22RvPSA36-103 cells; type: cell-based, human; settings: 6 days, plus androgen
# Description: Given that activation of the AR signaling pathway stimulates prostate cancer cell proliferation and our finding that IKKα is implicated in this pathway, we sought to determine if IKKα inhibition would reduce prostate cancer cell proliferation. To this end, the colony forming efficiency of 22Rv1 cells and 22RvPSA36-103 cells in the presence of an androgen plus or minus an IKK inhibitor was determined by growing 2×10^4 cells in 12-well multi-well plates for 6 days. The growth medium was replaced every three days. At the end of the growth period, cell colonies were stained with 0.1% crystal violet in phosphate buffer saline, dried, and photographed. Cellular retention of crystal violet was extracted with 20% acetic acid in water and measured at OD595 as a quantitative indicator of colony forming efficiency.
# 22Rv1 cells = assay: Colony forming efficiency, crystal violet OD595, 22Rv1 cells; type: cell-based, human; settings: 6 days, plus androgen
# [3] = tested on: AR in a complex with IKKα; settings: 10 nM, five minutes, 22Rv/PSA36-103 cells
# Text: We investigated if IKKα or IKKβ could interact with activated AR in 22Rv/PSA36-103 cells after androgen stimulation.
compound,measurement,setting,value
C[C@]12CC[C@@H]3c4ccc(O)cc4CC[C@H]3[C@@H]1CC[C@@H]2O [17-β-estradiol],Induction of PSA-luciferase expression,[1],failed to induce PSA-luciferase expression
COc1cc(O)c2c(c1)oc(=O)c1c3cc(O)c(O)cc3oc21 [wedelolactone],Inhibition of 5α-dihydrotestosterone-induced luciferase expression,[2],inhibited 5α-dihydrotestosterone-induced luciferase expression in a dose-dependent manner
same,Inhibition of androgen-stimulated colony growth,22RvPSA36-103 cells,highly effective
same,Inhibition of androgen-stimulated colony growth,22Rv1 cells,highly effective
C[C@]12CCC(=O)C[C@@H]1CC[C@@H]1[C@@H]2CC[C@]2(C)[C@@H](O)CC[C@@H]12 [5α-dihydrotestosterone],PSA-luciferase activity stimulation,[1],approximately 100 fold over baseline
same,Co-immunoprecipitation of the AR in a complex with IKKα,[3],detected
"CCCCC/C=C/C=C1/C(=O)C=C[C@@H]1C/C=C\CCCC(=O)O [15-deoxy-Δ^12,14-prostaglandin J2]",Inhibition of 5α-dihydrotestosterone-induced luciferase expression,[2],inhibited 5α-dihydrotestosterone-induced luciferase expression in a dose-dependent manner
CC(=O)[C@H]1CC[C@H]2[C@@H]3CCC4=CC(=O)CC[C@]4(C)[C@H]3CC[C@]12C [progesterone],Induction of PSA-luciferase expression,[1],failed to induce PSA-luciferase expression
CCCCC[C@H](O)/C=C/[C@H]1C=CC(=O)[C@@H]1CCCCCCC(=O)O [prostaglandin A1],Inhibition of 5α-dihydrotestosterone-induced luciferase expression,[2],inhibited 5α-dihydrotestosterone-induced luciferase expression in a dose-dependent manner
C[C@]12CC[C@H]3[C@@H](CCC4=CC(=O)CC[C@@]43C)[C@@H]1CC[C@@H]2O [testosterone],PSA-luciferase activity stimulation,[1],approximately 100 fold over baseline
